For one test, the target named is T1, Erk2.
T1 construct: teils als Volllängenkinasen, teils als verkürzte Fragmente - mindestens aber bestehend aus der funktionellen Kinasedomäne; purchased Upstate 14-173
As to the kind of experiment: Cell-free kinase assay Erk2-ALPHA (ALPHA technology). Format: biochemical, human. As to conditions: 10µM ATP. The source says:
(§1) Die inhibitorische Wirkung der erfindungsgemäßen Verbindungen wurde an diversen humanen Serin/ Threonin-, Tyrosin- und Lipidkinasen in enzymatischen Assays getestet. Dabei wurden rekombinante humane Kinasen wie z.B. Erk2, Pl3Kalpha, - beta, -gamma, -delta, p38alpha, p38gamma, Jnk1, Jnk2 und andere eingesetzt, teils als Volllängenkinasen, teils als verkürzte Fragmente - mindestens aber bestehend aus der funktionellen Kinasedomäne. Die käuflichen Kinaseproteine (Proqinase, Upstate) wurden als rekombinante Fusionsproteine mit GST-(Glutathion-S-Transferase) oder His-Tag eingesetzt. Je nach Substrattyp wurden die verschiedenen Kinasereaktionen mittels geeigneter ALPHA™-beads (PerkinElmer) quantifiziert.
(§2) Nachfolgend wird die Substanztestung am Erk-Assay genauer beschrieben. Ausgewählte Testergebnisse der Erk2-, PI3Kalpha-Assays sind unten aufgeführt. […] Anschließend wurde die Kinasereaktion durch Zugabe von 10µl des mit anti-phospho MBP-Antikörpers (320pM, #05-429/ Upstate) präinkubierten ALPHA-Beadmixes (10µg/ml, #6760617/ PerkinElmer) in 25mM Tris, 200mM NaCl, 100mM EDTA und 0.3% BSA abgestoppt und über Nacht stehen gelassen. • b) PI3K-ALPHAs (z.B. PI3Kalpha): Die Testsubstanz, 1ng PI3Kalpha (#14-602, Upstate), 100µM ATP und 20µM PIP2-Substrat (#P4508, Echelon) auf einer 384er Optiplate (PerkinElmer) für 1h in 50mM Hepes, 50mM NaCl, 5mM MgCl2, 0.05% Chaps, 5mM DTT bei pH 7.4 inkubiert. Anschließend wurde die Kinasereaktion durch Zugabe des mit 1nM GST:Grp1-Fusionsprotein (Upstate) und 15nM biotinyliertem PIP3 (#C-39B6/ Echelon) präinkubierten ALPHA-Beadmixes (10µg/ml, #6760603/ PerkinElmer) in 50mM Hepes, 50mM NaCl, 50mM EDTA und 0.1% BSA abgestoppt und über Nacht stehen gelassen.
(§3) Die Fluoreszenzdetektion erfolgte am nächsten Morgen in einem Fusion™alpha-Gerät (PerkinElmer).
(§4) Die Berechnung der %-Inhibitionswerte je Substanz-Konzentration geschah mittels folgender Formel aus den im Fusion™alpha ermittelten Rohdaten: % Kinase Inhibition(Probe) = 100-(100×(MittelwertProbe -Mittelwert0% Kontrolle)/(Mittelwert100% Kontrolle -Mittelwert0% Kontrolle)) [formula]
(§5) Die Kontrollen wurden jeweils 8fach, die Substanzproben jeweils 2fach bestimmt. Die 0%-Kontrolle enthielt entweder kein ATP oder kein Substrat, die 100%-Kontrolle enthielt keine Testsubstanz. Die IC50-Werte wurden mit GraphPadPrism ermittelt.

Another test deals with T2, PI3Kalpha (Homo sapiens, UniProt P42336).
T2 construct: teils als Volllängenkinasen, teils als verkürzte Fragmente - mindestens aber bestehend aus der funktionellen Kinasedomäne; purchased Upstate 14-602
T2 sequence (P42336 whole entry, the tested form may be a part): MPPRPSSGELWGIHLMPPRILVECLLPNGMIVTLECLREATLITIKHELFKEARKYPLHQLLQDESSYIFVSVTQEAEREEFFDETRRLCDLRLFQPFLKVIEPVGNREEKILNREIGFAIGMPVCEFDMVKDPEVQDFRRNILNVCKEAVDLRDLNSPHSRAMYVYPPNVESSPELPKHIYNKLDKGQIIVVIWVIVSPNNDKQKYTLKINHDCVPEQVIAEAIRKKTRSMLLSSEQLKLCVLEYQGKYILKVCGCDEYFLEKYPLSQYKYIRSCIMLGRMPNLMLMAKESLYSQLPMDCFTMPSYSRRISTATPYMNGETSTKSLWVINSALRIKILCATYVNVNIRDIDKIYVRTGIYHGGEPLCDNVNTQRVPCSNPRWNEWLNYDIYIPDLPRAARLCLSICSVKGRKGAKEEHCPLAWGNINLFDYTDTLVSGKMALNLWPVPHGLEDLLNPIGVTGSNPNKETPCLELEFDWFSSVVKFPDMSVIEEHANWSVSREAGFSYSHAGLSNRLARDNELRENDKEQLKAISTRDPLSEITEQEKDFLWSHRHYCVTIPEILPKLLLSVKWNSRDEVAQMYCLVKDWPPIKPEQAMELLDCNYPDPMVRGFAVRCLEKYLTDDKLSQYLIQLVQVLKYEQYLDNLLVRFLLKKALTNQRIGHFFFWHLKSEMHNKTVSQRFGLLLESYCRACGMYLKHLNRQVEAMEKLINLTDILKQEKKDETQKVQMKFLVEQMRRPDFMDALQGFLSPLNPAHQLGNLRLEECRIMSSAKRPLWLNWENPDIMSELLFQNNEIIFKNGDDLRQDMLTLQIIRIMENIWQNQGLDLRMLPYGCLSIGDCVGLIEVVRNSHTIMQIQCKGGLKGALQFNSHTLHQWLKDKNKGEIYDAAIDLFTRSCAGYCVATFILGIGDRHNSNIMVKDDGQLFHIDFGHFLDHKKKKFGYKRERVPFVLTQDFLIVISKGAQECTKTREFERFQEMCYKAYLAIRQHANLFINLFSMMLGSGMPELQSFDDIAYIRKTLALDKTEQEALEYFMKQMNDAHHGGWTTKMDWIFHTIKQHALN
T2 sequence (P27986 whole entry partner, the tested form may be a part): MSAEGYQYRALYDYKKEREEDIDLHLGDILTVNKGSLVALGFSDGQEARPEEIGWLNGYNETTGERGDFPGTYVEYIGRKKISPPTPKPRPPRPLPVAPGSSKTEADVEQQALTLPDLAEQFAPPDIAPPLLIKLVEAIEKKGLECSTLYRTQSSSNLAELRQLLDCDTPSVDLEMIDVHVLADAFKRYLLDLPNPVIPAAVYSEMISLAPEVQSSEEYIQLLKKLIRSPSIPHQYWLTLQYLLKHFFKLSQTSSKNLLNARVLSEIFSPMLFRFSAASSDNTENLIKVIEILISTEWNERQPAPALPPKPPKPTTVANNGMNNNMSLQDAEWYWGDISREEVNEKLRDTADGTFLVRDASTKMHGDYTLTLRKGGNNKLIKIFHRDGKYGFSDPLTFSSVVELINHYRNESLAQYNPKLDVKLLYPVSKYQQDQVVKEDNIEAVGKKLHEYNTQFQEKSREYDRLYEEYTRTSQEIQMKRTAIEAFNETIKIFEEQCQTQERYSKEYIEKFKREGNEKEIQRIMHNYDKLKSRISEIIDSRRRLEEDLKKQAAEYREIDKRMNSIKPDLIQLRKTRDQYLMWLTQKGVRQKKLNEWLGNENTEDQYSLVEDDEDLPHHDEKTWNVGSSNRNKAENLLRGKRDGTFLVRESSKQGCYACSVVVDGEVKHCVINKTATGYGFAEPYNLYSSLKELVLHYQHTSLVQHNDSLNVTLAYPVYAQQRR
As to the kind of experiment: Cell-free kinase assay PI3K-ALPHA (ALPHA technology). Format: biochemical. As to conditions: 100µM ATP.
Source text: as §1, §2, §3, §4, §5

The subject of another test is BxPC3. As to the kind of experiment: Cellular anti-proliferative XTT assay. The class given is cell-based. As to conditions: Homo sapiens, BXPC-3, 45h incubation. The source says: (§6) Das Prinzip dieses Testes beruht auf der intrazellulären Reduktion des Tetrazolium-Farbstoffes XTT (Natrium 3'-[1-(phenylaminocarbonyl)-3,4-tetrazolium]-bis(4-methoxy-6-nitro)benzensulfonsäure, Sigma) zu einem Formazan-Farbstoff durch mitochondriale Dehydrogenasen. Der Farbstoff wird nur von stoffwechselaktiven Zellen gebildet, seine photometrisch messbare Intensität ist ein quantitativer Indikator für das Vorhandensein lebender Zellen. Die Reduzierung der Farbstoffbildung durch Inkubation der Zellen mit Substanzen dient als Parameter für die anti-proliferative Wirkung.
(§7) Die Tumorzelllinien (ATCC) wurden in 96er Mikrotiterplatten in definierter Zellzahl (5000 Zellen/ Well für BxPC3 und Hct116; 10000 Zellen/ Well für MDA MB468) eingesäat und anschließend über Nacht im Brutschrank bei 37°C, 5% CO2 und 95% Luftfeuchtigkeit inkubiert. Die Testsubstanzen wurden als Stammlösungen (10 mM) in DMSO angesetzt. […] Die Zellplatten wurden dann für 45h im Brutschrank bei 37°C, 5% CO2 und 95% Luftfeuchtigkeit inkubiert.
(§8) Für die Detektionssreaktion wurde das Substrat XTT mit PMS (N-Methyl Dibenzopyrazine Methylsulfat, Sigma) versetzt und zu den Zellen gegeben, sodass eine finale Konzentration von 325µg XTT/ml und 2.5µg PMS/ml resultierte. Es wurde dann für 3h bei 37°C, 95% Luftfeuchte inkubiert. Anschließend konnte das durch zelluläre Dehydrogenasen gebildete Formazan Salz bei einer Adsorption bei 490nm quantifiziert werden.
(§9) Die Auswertung der %-Inhibitions-Werte geschah mittels folgender Formel aus den Werten für die jeweils gemessenen optischen Dichten bei 490nm: % Inhibition Zellproliferation(Probe) = 100-(100×(MittelwertProbe -Mittelwert0% Kontrolle)/(Mittelwert100% Kontrolle -Mittelwert0% Kontrolle)) [formula]
(§10) Die Kontrollen wurden jeweils 8fach, die Substanzproben jeweils 2fach bestimmt. Die 0%-Kontrolle enthielt keine Zellen, die 100%-Kontrolle enthielt keine Testsubstanz. Die EC50-Werte wurden mit GraphPadPrism ermittelt.

In another test the test system is Hct116. As to the kind of experiment: Cellular anti-proliferative XTT assay. The class given is cell-based. As to conditions: Homo sapiens, HCT-116, 45h incubation.
Source text: as §6, §7, §8, §9, §10

The test system of a further test is MDA-MB468. The test can be described thus: Cellular anti-proliferative XTT assay. The class given is cell-based. As to conditions: Homo sapiens, MDA-MB-468, 45h incubation.
Source text: as §6, §7, §8, §9, §10

pEC50, pIC50: −log10 of the molar value. Bounds are passed on as bounds.

T1 sequence (P63085 2-358 limits assumed): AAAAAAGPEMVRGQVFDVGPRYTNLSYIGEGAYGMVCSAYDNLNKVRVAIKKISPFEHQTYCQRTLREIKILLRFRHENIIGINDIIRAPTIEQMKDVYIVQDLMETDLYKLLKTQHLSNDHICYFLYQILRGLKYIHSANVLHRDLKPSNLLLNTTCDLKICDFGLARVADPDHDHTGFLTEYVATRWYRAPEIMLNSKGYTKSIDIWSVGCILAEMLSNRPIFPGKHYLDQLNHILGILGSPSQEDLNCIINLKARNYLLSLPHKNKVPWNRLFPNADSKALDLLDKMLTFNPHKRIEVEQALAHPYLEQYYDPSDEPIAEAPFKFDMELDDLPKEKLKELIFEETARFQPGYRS

The pIC50 is the negative decadic logarithm of the IC50, by convention in mol/L. Lower therefore signals a high IC50. Regarding `CCNC(=O)Nc1ccc2ncc(C#CC3CC3)nc2n1` [Beispiel 3, 1-(3-Cyclopropylethynyl-pyrido[2,3-b]pyrazin-6-yl)-3-ethyl-harnstoff], the pIC50 against Erk2 is 5.24; on PI3Kalpha it was 4.77.
On PI3Kalpha, `CCNC(=O)Nc1ccc2ncc(C=CCOC)nc2n1` [Beispiel 6, 1-Ethyl-3-[3-((E)-3-methoxy-propenyl)-pyrido[2,3-b]pyrazin-6-yl]-harnstoff] had a pIC50 of 4.67.
Consider `CONC(=O)Nc1ccc2ncc(-c3ccccc3)nc2n1` [Beispiel 7, 1-Methoxy-3-(3-phenyl-pyrido[2,3-b]pyrazin-6-yl)-harnstoff], for which the negative-log IC50 (pIC50) at Erk2 was 6.39; on PI3Kalpha it was 4.55.
In the same order, the values of `C=CCONC(=O)Nc1ccc2ncc(-c3ccccc3)nc2n1` [Beispiel 8, 1-Allyloxy-3-(3-phenyl-pyrido[2,3-b]pyrazin-6-yl)-harnstoff] are 5.39 and 4.57.
A word on the pEC50: it is the EC50 on a negative log10 scale, so that one unit is a factor of ten. Regarding `CCNC(=O)Nc1ccc2ncc(-c3ccc(OC(=O)OC)cc3)nc2n1` [Beispiel 9, Kohlensäure-4-[6-(3-ethyl-harnstoff)-pyrido[2,3-b]pyrazin-3-yl]-phenyl-methyl-ester], the negative logarithm of the IC50 (pIC50) was 6.93 on Erk2 and 5.11 against PI3Kalpha. Moreover, the pEC50 in the test on BxPC3 was 4.70; in the test with Hct116, 5.00; with MDA-MB468, 4.82.
With `CCNC(=O)Nc1ccc2ncc(-c3ccc(OC(=O)OCCOC)cc3)nc2n1` [Beispiel 10, Kohlensäure-4-[6-(3-ethyl-harnstoff)-pyrido[2,3-b]pyrazin-3-yl]-phenyl-(2-methoxy-ethyl)-ester], the pIC50 against Erk2 is 7.06; against PI3Kalpha, 5.59. Further, the negative-log EC50 (pEC50) in the test with BxPC3 was 5.05; in the test with Hct116 it was 5.30; with MDA-MB468, 5.15.
`CCNC(=O)Nc1ccc2ncc(-c3ccc(OC(=O)Oc4ccccc4)cc3)nc2n1` [Beispiel 11, Kohlensäure-4-[6-(3-ethyl-harnstoff)-pyrido[2,3-b]pyrazin-3-yl]-phenyl-phenyl-ester]: the values for the negative-log IC50 (pIC50) against Erk2 and against PI3Kalpha were 6.57 and below 4.50, respectively.
As to `CCNC(=O)Nc1ccc2ncc(-c3ccc(OC(=O)N(CC)CC)cc3)nc2n1` [Beispiel 12, Diethyl-carbaminsäure-4-[6-(3-ethyl-harnstoff)-pyrido[2,3-b]pyrazin-3-yl]-phenyl-ester], the pIC50 at Erk2 is 5.55; against PI3Kalpha it was 5.47.
Regarding `CCNC(=O)Nc1ccc2ncc(-c3ccc(OC(=O)C=Cc4ccccc4)cc3)nc2n1` [Beispiel 13, (E)-3-Phenyl-acrylsäure-4-[6-(3-ethyl-harnstoff)-pyrido[2,3-b]pyrazin-3-yl]-phenyl-ester], the pIC50 on PI3Kalpha was below 4.50.

The values above are taken from patent EP1785423A1, “Pyridopyrazine derivatives and their use as kinase modulators” (Zentaris GmbH, priority 2005, dated 2007).
